Data on ten molecules can be found in US9102675B2, “3-Cyanoaryl-1H-pyrrolo[2,3-B] pyridine derivatives” (MERCK PATENT GMBH, priority 2011, dated 2015).

In experiment [1] the target is T1, IKKε (Homo sapiens, UniProt Q14164).
T1 sequence (Q14164 1-716): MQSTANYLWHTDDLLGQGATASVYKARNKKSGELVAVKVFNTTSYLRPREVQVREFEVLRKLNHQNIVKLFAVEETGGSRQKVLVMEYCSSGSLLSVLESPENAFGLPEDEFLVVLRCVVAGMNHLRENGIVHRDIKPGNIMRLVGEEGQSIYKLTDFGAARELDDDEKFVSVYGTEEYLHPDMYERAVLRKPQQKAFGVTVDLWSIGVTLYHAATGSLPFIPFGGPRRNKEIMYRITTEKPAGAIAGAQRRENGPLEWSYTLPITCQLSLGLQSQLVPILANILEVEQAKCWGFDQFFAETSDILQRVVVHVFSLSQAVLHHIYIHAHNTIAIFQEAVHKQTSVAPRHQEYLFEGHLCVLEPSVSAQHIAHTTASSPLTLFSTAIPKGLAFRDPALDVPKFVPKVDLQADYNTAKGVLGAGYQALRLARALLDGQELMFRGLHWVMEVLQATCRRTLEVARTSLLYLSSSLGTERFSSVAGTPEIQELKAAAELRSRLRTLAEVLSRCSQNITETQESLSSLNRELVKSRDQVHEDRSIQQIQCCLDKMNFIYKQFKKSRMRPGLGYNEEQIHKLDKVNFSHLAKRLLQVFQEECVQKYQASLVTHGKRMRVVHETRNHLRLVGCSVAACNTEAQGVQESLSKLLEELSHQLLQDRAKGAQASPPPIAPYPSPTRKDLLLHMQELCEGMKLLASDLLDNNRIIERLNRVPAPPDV
In words: IKKε kinase assay (384-well flashplate assay). The class given is biochemical. The settings on record: 10 μM ATP, 1 nM IKKε; read-out: IKKε enzyme assay IC50. As to the method: Test for the Inhibition of IKKε
IKKε—Kinase Assay (IKKepsilon)
(§1) The kinase assay is performed as 384-well flashplate assay (for example for Topcount measurement).
1 nM IKKε, 800 nM biotinylated IκKα(19-42) peptide (Biotin-C6-C6-[…]) and 10 μM ATP (spiked with 0.3 μCi of ^33P-ATP/well) are incubated at 30° C. for 2 hours in a total volume of 50 μl (10 mM MOPS, 10 mM Mg acetate, 0.1 mM EGTA, 1 mM dithiothreitol, 0.02% of Brij35, 0.1% of BSA, 0.1% of BioStab, pH 7.5) with or without test compound. The reaction is stopped using 25 μl of 200 mM EDTA. After 30 min at room temperature, the liquid is removed, and each well is washed three times with 100 μl of 0.9% sodium chloride solution. Non-specific reaction is determined in the presence of 3 μM MSC2119074 (BX-795). The radioactivity is measured using a Topcount (Perkin Elmer). The results (for example IC50 values) are calculated using program tools provided by the IT Department (for example AssayExplorer, Symyx).

For experiment [2], the target named is T2, TANK binding kinase (TBK1) (Homo sapiens, UniProt Q9UHD2).
T2 sequence (Q9UHD2 1-729): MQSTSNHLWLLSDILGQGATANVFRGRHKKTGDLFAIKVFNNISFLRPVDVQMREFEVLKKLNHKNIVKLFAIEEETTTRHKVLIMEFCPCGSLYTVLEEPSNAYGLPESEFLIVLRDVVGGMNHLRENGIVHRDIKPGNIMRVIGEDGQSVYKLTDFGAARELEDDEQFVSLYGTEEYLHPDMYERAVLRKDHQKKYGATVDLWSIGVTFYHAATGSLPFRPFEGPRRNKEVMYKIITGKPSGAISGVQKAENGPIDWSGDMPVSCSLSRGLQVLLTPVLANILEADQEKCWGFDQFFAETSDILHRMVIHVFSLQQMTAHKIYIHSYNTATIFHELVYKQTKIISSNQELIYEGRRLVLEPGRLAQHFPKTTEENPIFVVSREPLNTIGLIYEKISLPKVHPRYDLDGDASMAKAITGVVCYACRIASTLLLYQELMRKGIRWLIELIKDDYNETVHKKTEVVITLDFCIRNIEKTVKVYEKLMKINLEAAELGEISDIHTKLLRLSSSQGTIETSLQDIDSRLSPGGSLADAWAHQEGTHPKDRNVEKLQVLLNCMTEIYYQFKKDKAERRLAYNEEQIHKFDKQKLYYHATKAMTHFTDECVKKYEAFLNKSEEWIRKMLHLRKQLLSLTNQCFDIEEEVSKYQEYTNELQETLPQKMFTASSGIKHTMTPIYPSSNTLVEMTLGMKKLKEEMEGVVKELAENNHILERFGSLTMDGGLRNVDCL
In words: TBK1 enzyme assay (384-well flashplate kinase assay). The class given is biochemical. As to conditions: 10 μM ATP, 0.6 nM TBK1. As to the method:
Test for the Inhibition of TBK1
as §1
0.6 nM TANK binding kinase (TBK1), 800 nM biotinylated MELK-derived peptide (biotin-Ah-Ah-[…]) and 10 μM ATP (spiked with 0.25 μCi of ^33P-ATP/well) are incubated at 30° C. for 120 min in a total volume of 50 μl (10 mM MOPS, 10 mM Mg acetate, 0.1 mM EGTA, 1 mM DTT, 0.02% of Brij35, 0.1% of BSA, pH 7.5) with or without test compound. The reaction is stopped with 25 μl of 200 mM EDTA. After 30 min at room temperature, the liquid is removed, and each well is washed three times with 100 μl of 0.9% sodium chloride solution. Non-specific reaction is measured in the presence of 100 nM staurosporine. The radioactivity is measured in a Topcount (PerkinElmer). The results (for example IC50 values) are calculated using program tools provided by the IT Department (for example Assay-Explorer, Symyx). Cell Test

The IC50 is the concentration needed to halve the response being measured. As to `N#Cc1cc(-c2c[nH]c3ncc(-c4cn(CCN5CCCC5)nn4)cc23)ccc1OC1CCOCC1` [Compound A27, 5-[5-[1-(2-Pyrrolidin-1-ylethyl)triazol-4-yl]-1H-pyrrolo-[2,3-b]pyridin-3-yl]-2-tetrahydropyran-4-yloxybenzo-nitrile], the IC50 in experiment [1] and in experiment [2] was less than 300 nM each time.
As to `CN1CCN(c2cnc3[nH]cc(-c4ccc(OC5CCOCC5)c(C#N)c4)c3c2)CC1` [Compound A17, 5-[5-(4-methylpiperazin-1-yl)-1H-pyrrolo[2,3-b]pyridin-3-yl]-2-tetrahydropyran-4-yloxybenzonitrile], the IC50 in experiment [1] and in experiment [2] was 300 to 3000 nM each time.
As for `N#Cc1cc(-c2c[nH]c3ncc(-c4cnn(C5COC5)c4)cc23)cnc1OC1CCOCC1` [Compound A37, 5-[5-(1-Oxetan-3-yl-1H-pyrazol-4-yl)-1H-pyrrolo-[2,3-b]pyridin-3-yl]-2-(tetrahydropyran-4-yloxy)-nicotinonitrile], the IC50 in experiment [1] and in experiment [2] was less than 300 nM each time.
On to `CC1(COc2ccc(-c3c[nH]c4ncc(-c5cnn(C6COC6)c5)cc34)cc2C#N)COC1` [Compound A35, 2-(3-methyloxetan-3-ylmethoxy)-5-[5-(1-oxetan-3-yl-1H-pyrazol-4-yl)-1H-pyrrolo[2,3-b]-pyridin-3-yl]benzonitrile], for which the IC50 in experiment [1] and in experiment [2] was less than 300 nM in each case.
`N#Cc1cc(-c2c[nH]c3ncc(-c4cnn(CCN5CCCC5)c4)cc23)ccc1OC1CCOCC1` [Compound A9, 5-[5-[1-(2-pyrrolidin-1-ylethyl)pyrazol-4-yl]-1H-pyrrolo[2,3-b]pyridin-3-yl]-2-tetrahydropyran-4-yloxybenzonitrile]: the IC50 in experiment [1] and in experiment [2] was less than 300 nM in each case.
Consider `CC1(COc2ccc(-c3c[nH]c4ncc(-c5cn[nH]c5)cc34)cc2C#N)COC1` [Compound A36, 2-(3-methyloxetan-3-ylmethoxy)-5-[5-(1H-pyrazol-4-yl)-1H-pyrrolo[2,3-b]pyridin-3-yl]benzonitrile], for which the IC50 in experiment [1] and in experiment [2] was less than 300 nM in each case.
With `N#Cc1cc(-c2c[nH]c3ncc(-c4cnn(C5CCNCC5)c4)cc23)ccc1OC1CCOCC1` [Compound A12, 5-[5-(1-piperidin-4-yl-1H-pyrazol-4-yl)-1H-pyrrolo[2,3-b]pyridin-3-yl]-2-(tetrahydropyran-4-yloxy)benzonitrile], the IC50 in experiment [1] and in experiment [2] was less than 300 nM throughout.
Regarding `CC1(COc2ccc(-c3c[nH]c4ncc(-c5cnn(C6CCNCC6)c5)cc34)cc2C#N)COC1` [Compound A24, 2-[(3-Methyloxetan-3-yl)methoxy]-5-[5-[1-(4-piperidyl)pyrazol-4-yl]-1H-pyrrolo[2,3-b]pyridin-3-yl]-benzonitrile], the IC50 in experiment [1] and in experiment [2] was less than 300 nM each time.
`COCCn1cc(-c2cnc3[nH]cc(-c4ccc(OC5CCOCC5)c(C#N)c4)c3c2)cn1` [Compound A10, 5-[5-[1-(2-methoxyethyl)pyrazol-4-yl]-1H-pyrrolo[2,3-b]pyridin-3-yl]-2-tetrahydropyran-4-yloxybenzonitrile]: the concentration for half-maximal inhibition (IC50) in experiment [1] and in experiment [2] was less than 300 nM in each case.
Consider `N#Cc1cc(-c2c[nH]c3ncc(-c4cnn(CCO)c4)cc23)ccc1OC1CCOCC1` [Compound A15, 5-[5-[1-(2-hydroxyethyl)pyrazol-4-yl]-1H-pyrrolo[2,3-b]pyridin-3-yl]-2-tetrahydropyran-4-yloxybenzonitrile], for which the IC50 in experiment [1] and in experiment [2] was less than 300 nM in each case.
